Laboratory results taken from US10562912B2 (C&C Research Laboratories, priority 2013, dated 2020).

Tests used:
Assay type in all cases: cell-based
[1] = system: LNCaP; assay: Cell growth inhibition assay, prostate cancer cell line LNCaP (medium with 10 ng/mL IL-6); conditions: Homo sapiens, medium supplemented with 10 ng/mL of IL-6, 10,000 cells/well
[2] = system: MDA-MB-231; assay: Cell growth inhibition assay, breast cancer cell line MDA-MB-231; conditions: Homo sapiens; MDA-MB-231 breast cancer cell line, 5,000 cells/well
Procedure: The inhibitory effects of the compounds of the present invention against the growth of cancer cells were evaluated as shown below. The cancer cell lines including stomach cancer cell line (AGS), breast cancer cell lines (MDA-MB-231, MDA-MB-468, and BT-549), prostate cancer cell lines (LNCaP and DU-145), colon cancer cell line (HCT116), ovarian cancer cell line (SW626), liver cancer cell line (Hep3B), kidney cancer cell line (ACHN), lung cancer cell line (NCI-H23) and blood cancer cell lines (HEL92.1.7 and U266) were cultured under the protocol provided by each supplier. A medium supplemented with 10 ng/mL of IL-6 was used for LNCaP, a prostate cancer cell line, when treated with a drug. Each type of cells to be used in experiments were sub-cultured in a 96-well plate by counting the exact number of cells using Tali™ Image-based Cytometer (Life Technologies). In a 96-well plate, AGS, HCT116, and DU-145 were employed with 3,000 cells/well; NCI-H23, SW626, Hep3B, ACHN, BT-549, MDA-MB-231, HEL92.1.7, and U266 were employed with 5,000 cells/well; and LNCaP and MDA-MB-468 were employed with 10,000 cells/well. The cells were treated with the compounds listed in Examples which were diluted in various concentrations. Upon completion of the compounds treatment, AGS, HCT116, SW626, DU145, NCI-H23, Hep3B, ACHN, BT-549, LNCaP, HEL92.1.7, and U266 cells were cultured at 37° C. under 5% CO2 for from 72 to 96 hours, and MDA-MB-231 and MDA-MB-468 cells were cultured at 37° C. in air for from 72 to 96 hours. Subsequently, the cells were observed under microscope and drug precipitation and particular findings were investigated and recorded. And then, the 96-well plate was placed at room temperature for 30 minutes, added with 20 μL/well of CellTiter-Glo solution (Cat No. G7573, Promega) and shaken for 10 minutes, followed by being subjected to the measurement using PHERAstar™ microplate reader (BMG LABTECH) according to the supplier's general luminometer protocol. Wells where only culture liquid added without cell plating were used as a negative control, whereas wells where culture liquid containing 0.1% DMSO instead of the compounds listed in Examples were used as a positive control.

[3] = target: T1, STAT3 (Homo sapiens, UniProt P40763); assay: STAT3 reporter gene assay (luciferase), LNCaP stable cell line (pSTAT3-TA-luc), IL-6 stimulation
T1 construct: plasmid pSTAT3-TA-luc), which contains a stably operating STAT3 promoter; endogenous in cells
T1 sequence (P40763 whole entry): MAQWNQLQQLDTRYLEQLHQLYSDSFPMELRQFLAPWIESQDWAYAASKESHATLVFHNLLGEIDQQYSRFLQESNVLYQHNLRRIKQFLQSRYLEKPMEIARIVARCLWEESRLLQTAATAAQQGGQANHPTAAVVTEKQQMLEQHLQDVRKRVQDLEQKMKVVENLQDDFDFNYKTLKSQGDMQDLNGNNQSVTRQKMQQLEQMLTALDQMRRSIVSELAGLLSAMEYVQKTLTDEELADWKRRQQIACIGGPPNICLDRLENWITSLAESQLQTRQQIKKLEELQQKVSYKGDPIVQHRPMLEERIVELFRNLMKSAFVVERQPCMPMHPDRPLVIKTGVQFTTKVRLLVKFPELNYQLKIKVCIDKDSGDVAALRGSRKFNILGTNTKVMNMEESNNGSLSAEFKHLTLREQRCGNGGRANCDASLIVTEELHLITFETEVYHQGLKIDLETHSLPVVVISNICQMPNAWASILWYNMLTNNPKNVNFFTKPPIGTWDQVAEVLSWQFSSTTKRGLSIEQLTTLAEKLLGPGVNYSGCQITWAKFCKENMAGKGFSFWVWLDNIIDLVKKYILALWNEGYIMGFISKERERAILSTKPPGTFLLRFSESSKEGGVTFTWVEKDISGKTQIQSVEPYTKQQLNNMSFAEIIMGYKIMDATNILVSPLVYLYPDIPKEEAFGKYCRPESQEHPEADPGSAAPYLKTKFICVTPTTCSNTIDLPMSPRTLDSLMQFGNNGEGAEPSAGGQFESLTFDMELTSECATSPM
In short: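 LNCaP cells stably carrying pSTAT3-TA-luc, in RPMI1640 with 3% DCC-FBS, were treated with compound and then stimulated with 10 ng/mL IL-6 for 24–48 h at 37 °C. Luciferase activity was measured in lysates. A parallel plate measured viability by CellTiter-Glo, with stimulated 0.1% DMSO wells as the positive control.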

Question: How did the IC50 [1] turn out when `CC(C)(Oc1cccc(C(C)(C)c2cc(Br)cc(NC(=O)c3cc4cc(NS(C)(=O)=O)ccc4s3)c2)c1)C(N)=O` [Example 45, N-(3-(2-(3-((1-amino-2-methyl-1-oxopropan-2-yl)oxy)phenyl)propan-2-yl)-5-bromophenyl)-5-(methylsulfonamido)benzo[b]thiophene-2-carboxamide] was run?
Answer: 4.4 µM

Question: And the IC50 [2]?
Answer: 0.38 µM

Question: And the IC50 [3]?
Answer: 1.3 µM

Question: With `CS(=O)(=O)Nc1ccc2cc(C(=O)Nc3cc(C(=O)N4CCOCC4)cc(-c4ccc(F)cc4F)c3)[nH]c2c1` [Example 321, N-(2′,4′-difluoro-5-(morpholine-4-carbonyl)-[1,1′-biphenyl]-3-yl)-6-(methylsulfonamido)-1H-indole-2-carboxamide] as the compound, how does the IC50 [1] read?
Answer: > 10 µM

Question: And the IC50 [2]?
Answer: > 10 µM

Question: And the IC50 [3]?
Answer: 8.2 µM

Question: For `CS(=O)(=O)c1ccc2cc(C(=O)Nc3cc(Br)cc(-c4ccc(F)cc4F)c3)[nH]c2c1` [Example 304, N-(5-bromo-2′,4′-difluoro-[1,1′-biphenyl]-3-yl)-6-(methylsulfonyl)-1H-indole-2-carboxamide], which IC50 [1] is on record?
Answer: > 10 µM

Question: And the IC50 [2]?
Answer: 5.3 µM

Question: What about the IC50 [3] of the same compound?
Answer: 4 µM

Question: Which IC50 [1] does the source give for `CCC(CC)(c1cc(NC(=O)c2cc3ccc(NS(C)(=O)=O)cc3[nH]2)cc(OC)c1)c1cc(OC)cc(OC(F)(F)F)c1` [Example 55, N-(3-methoxy-5-(3-(3-methoxy-5-(trifluoromethoxy)phenyl)pentan-3-yl)phenyl)-6-(methylsulfonamido)-1H-indole-2-carboxamide] here?
Answer: 0.54 µM

Question: And the IC50 [2]?
Answer: 0.081 µM

Question: And the IC50 [3]?
Answer: 0.16 µM

Question: `CS(=O)(=O)Nc1ccc2cc(C(=O)Nc3cc(-c4ccc(C#N)nc4)cc(-c4ccc(F)cc4F)c3)[nH]c2c1` [Example 359, N-(5-(6-cyanopyridin-3-yl)-2′,4′-difluoro-[1,1′-biphenyl]-3-yl)-6-(methylsulfonamido)-1H-indole-2-carboxamide] was tested. Which IC50 [1] did it give?
Answer: > 10 µM

Question: What about the IC50 [2] of the same compound?
Answer: 2.6 µM

Question: What about the IC50 [3] of the same compound?
Answer: > 10 µM

Question: `Cc1c(C(=O)Nc2cc(Br)cc(-c3ccc(F)cc3F)c2)sc2cc(NS(C)(=O)=O)ccc12` [Example 309, N-(5-bromo-2′,4′-difluoro-[1,1′-biphenyl]-3-yl)-3-methyl-6-(methylsulfonamido)benzo[b]thiophene-2-carboxamide] was tested. Which IC50 [1] did it give?
Answer: 5.9 µM

Question: What about the IC50 [2] of the same compound?
Answer: 1.2 µM

Question: And the IC50 [3]?
Answer: 1.5 µM

Question: With `CS(=O)(=O)Nc1ccc2cc(C(=O)Nc3cc(F)cc(-c4ccc(F)cc4F)c3)[nH]c2c1` [Example 312, 6-(methylsulfonamido)-N-(2′,4′,5-trifluoro-[1,1′-biphenyl]-3-yl)-1H-indole-2-carboxamide] as the compound, how does the IC50 [1] read?
Answer: 1.3 µM

Question: What about the IC50 [2] of the same compound?
Answer: 0.22 µM

Question: What about the IC50 [3] of the same compound?
Answer: 0.24 µM

Question: How did the IC50 [1] turn out when `CC(C)(c1cccc(NC(=O)c2cc3cc(NS(C)(=O)=O)ccc3o2)c1)c1ccc(F)cc1F` [Example 29, N-(3-(2-(2,4-difluorophenyl)propan-2-yl)phenyl)-5-(methylsulfonamido)benzofuran-2-carboxamide] was run?
Answer: 3.8 µM

Question: What about the IC50 [2] of the same compound?
Answer: 0.47 µM

Question: And the IC50 [3]?
Answer: 0.53 µM

Question: How did the IC50 [1] turn out when `CS(=O)(=O)Nc1ccc2cc(C(=O)Nc3cc(OC(F)F)cc(C4(c5ccc(F)cc5)CC4)c3)[nH]c2c1` [Example 428, N-(3-(difluoromethoxy)-5-(1-(4-fluorophenyl)cyclopropyl)phenyl)-6-(methylsulfonamido)-1H-indole-2-carboxamide] was run?
Answer: 1.4 µM

Question: And the IC50 [2]?
Answer: 0.39 µM

Question: And the IC50 [3]?
Answer: 1 µM

Question: How did the IC50 [1] turn out when `CS(=O)(=O)Nc1ccc2cc(C(=O)Nc3cc(-c4ccc(F)cc4F)cc(N4CCOCC4)c3)[nH]c2c1` [Example 374, N-(2′,4′-difluoro-5-morpholino-[1,1′-biphenyl]-3-yl)-6-(methylsulfonamido)-1H-indole-2-carboxamide] was run?
Answer: 9.9 µM

Question: What about the IC50 [2] of the same compound?
Answer: 2.7 µM

Question: And the IC50 [3]?
Answer: 6.4 µM

Question: With `CS(=O)(=O)Nc1ccc2cc(C(=O)Nc3cc(-c4ccncc4)cc(-c4ccc(F)cc4F)c3)[nH]c2c1` [Example 356, N-(2′,4′-difluoro-5-(pyridin-4-yl)-[1,1′-biphenyl]-3-yl)-6-(methylsulfonamido)-1H-indole-2-carboxamide] as the compound, how does the IC50 [1] read?
Answer: 9.9 µM

Question: And the IC50 [2]?
Answer: 3.3 µM

Question: And the IC50 [3]?
Answer: 3.6 µM

Question: With `CS(=O)(=O)Nc1ccc2c(Cl)c(C(=O)Nc3cccc(-c4ccc(F)cc4F)c3)sc2c1` [Example 111, 3-chloro-N-(2′,4′-difluoro-[1,1′-biphenyl]-3-yl)-6-(methylsulfonamido)benzo[b]thiophene-2-carboxamide] as the compound, how does the IC50 [1] read?
Answer: > 10 µM

Question: What about the IC50 [2] of the same compound?
Answer: 6.3 µM

Question: What about the IC50 [3] of the same compound?
Answer: > 10 µM

Question: Which IC50 [1] does the source give for `CC(C)(c1cccc(NC(=O)c2cc3cc(NS(C)(=O)=O)ccc3s2)c1)c1ccc(F)cc1F` [Example 27, N-(3-(2-(2,4-difluorophenyl)propan-2-yl)phenyl)-5-(methylsulfonamido)benzo[b]thiophene-2-carboxamide] here?
Answer: 0.67 µM

Question: What about the IC50 [2] of the same compound?
Answer: 0.033 µM

Question: What about the IC50 [3] of the same compound?
Answer: 0.08 µM

Question: With `CN(C)c1cc(NC(=O)c2cc3cc(NS(C)(=O)=O)ccc3o2)cc(-c2ccc(F)cc2F)c1` [Example 376, N-(5-(dimethylamino)-2′,4′-difluoro-[1,1′-biphenyl]-3-yl)-5-(methylsulfonamido)benzofuran-2-carboxamide] as the compound, how does the IC50 [1] read?
Answer: 7.7 µM

Question: What about the IC50 [2] of the same compound?
Answer: 1.3 µM

Question: And the IC50 [3]?
Answer: 5.2 µM

Question: Which IC50 [1] does the source give for `CS(=O)(=O)Nc1ccc2cc(C(=O)Nc3cc(Br)cc(-c4ccc(F)cc4F)c3)sc2c1` [Example 310, N-(5-bromo-2′,4′-difluoro-[1,1′-biphenyl]-3-yl)-6-(methylsulfonamido)benzo[b]thiophene-2-carboxamide] here?
Answer: 3.2 µM

Question: What about the IC50 [2] of the same compound?
Answer: 0.39 µM

Question: And the IC50 [3]?
Answer: 0.8 µM

Question: What does the source list for `COc1cc(NS(C)(=O)=O)cc2cc(C(=O)Nc3cccc(-c4ccc(F)cc4F)c3)oc12` [Example 112, N-(2′,4′-difluoro-[1,1′-biphenyl]-3-yl)-7-methoxy-5-(methylsulfonamido)benzofuran-2-carboxamide]?
Answer: IC50 [1]: 8.6 µM; IC50 [2]: > 10 µM; IC50 [3]: 6.8 µM

Question: How did the IC50 [1] turn out when `CC(C)(c1cc(Br)cc(NC(=O)c2cc3cc(NS(C)(=O)=O)ccc3s2)c1)c1cc(OC(F)(F)F)ccc1F` [Example 47, N-(3-bromo-5-(2-(2-fluoro-5-(trifluoromethoxy)phenyl)propan-2-yl)phenyl)-5-(methylsulfonamido)benzo[b]thiophene-2-carboxamide] was run?
Answer: 0.031 µM

Question: What about the IC50 [2] of the same compound?
Answer: 0.006 µM

Question: And the IC50 [3]?
Answer: 0.008 µM

Question: How did the IC50 [1] turn out when `CS(=O)(=O)Nc1ccc2cc(C(=O)Nc3cccc(C(F)(F)c4ccccc4)c3)[nH]c2c1` [Example 387, N-(3-(difluoro(phenyl)methyl)phenyl)-6-(methylsulfonamido)-1H-indole-2-carboxamide] was run?
Answer: 3.5 µM

Question: What about the IC50 [2] of the same compound?
Answer: 1.17 µM

Question: And the IC50 [3]?
Answer: 2.4 µM

Question: `CS(=O)(=O)Nc1ccc2cc(C(=O)Nc3cc(-c4ccsc4)cc(-c4ccc(F)cc4F)c3)[nH]c2c1` [Example 355, N-(2′,4′-difluoro-5-(thiophen-3-yl)-[1,1′-biphenyl]-3-yl)-6-(methylsulfonamido)-1H-indole-2-carboxamide] was tested. Which IC50 [1] did it give?
Answer: 1.8 µM

Question: What about the IC50 [2] of the same compound?
Answer: 0.28 µM

Question: And the IC50 [3]?
Answer: 0.21 µM

Question: What does the source list for `COc1cc(NS(C)(=O)=O)cc2cc(C(=O)Nc3cccc(C(C)(C)c4ccc(F)cc4)c3)oc12` [Example 113, N-(3-(2-(4-fluorophenyl)propan-2-yl)phenyl)-7-methoxy-5-(methylsulfonamido)benzofuran-2-carboxamide]?
Answer: IC50 [1]: > 10 µM; IC50 [2]: 6.4 µM; IC50 [3]: 8.9 µM

Question: What does the source list for `COc1cccc(-c2cc(NC(=O)c3cc4ccc(NS(C)(=O)=O)cc4[nH]3)cc(-c3ccc(F)cc3F)c2)n1` [Example 383, N-(2′,4′-difluoro-5-(6-methoxypyridin-2-yl)-[1,1′-biphenyl]-3-yl)-6-(methylsulfonamido)-1H-indole-2-carboxamide]?
Answer: IC50 [1]: 4.3 µM; IC50 [2]: 2.33 µM; IC50 [3]: 0.09 µM

Question: What does the source list for `Cc1c(C(=O)Nc2cccc(C(C)(C)c3ccc(F)cc3)c2)sc2ccc(NS(C)(=O)=O)cc12` [Example 52, N-(3-(2-(4-fluorophenyl)propan-2-yl)phenyl)-3-methyl-5-(methylsulfonamido)benzo[b]thiophene-2-carboxamide]?
Answer: IC50 [1]: 4.7 µM; IC50 [2]: 0.7 µM; IC50 [3]: 1.5 µM

Question: `COc1cccc(C(C)(C)c2cccc(NC(=O)c3cc4ccc(NS(C)(=O)=O)cc4[nH]3)c2)c1` [Example 12, N-(3-(2-(3-methoxyphenyl)propan-2-yl)phenyl)-6-(methylsulfonamido)-1H-indole-2-carboxamide] was tested. Which IC50 [1] did it give?
Answer: 1.4 µM

Question: What about the IC50 [2] of the same compound?
Answer: 0.034 µM

Question: And the IC50 [3]?
Answer: 0.26 µM
